Experimental data from patent publication US20240270821A1, “GIP/GLP1/GCG TRI-RECEPTOR AGONISTS AND USES THEREOF” (priority 2023, published 2024).
Read-outs that look alike come from different tables or passages of the source. Starred links: 1 amine or outer side, 2 acyl side, 3 side chain; linkers in the order of their positions; H or OH if unused. Non-standard residues stand in square brackets, D forms with d. Residues, ends and D or L forms follow the SMILES beside them. Groups on a side chain read outwards from the residue. No end group written: not given here. *: point of attachment. C20 diacid = O=C(O)CCCCCCCCCCCCCCCCCCC(=O)*; C18 diacid = O=C(O)CCCCCCCCCCCCCCCCC(=O)*; αMePhe(2-F) = C[C@](N)(Cc1ccccc1F)C(=O)O; γGlu = O=C(O)[C@H](CCC(=O)[*:2])N[*:1]; αMe4Pal = C[C@](N)(Cc1ccncc1)C(=O)O; αMeY = C[C@](N)(Cc1ccc(O)cc1)C(=O)O; αMeF = C[C@](N)(Cc1ccccc1)C(=O)O; 4Pal = N[C@@H](Cc1ccncc1)C(=O)O; αMeL = CC(C)C[C@](C)(N)C(=O)O; αMeS = C[C@](N)(CO)C(=O)O; Orn = NCCC[C@H](N)C(=O)O; AEEA = NCCOCCOCC(=O)O; Aib = CC(C)(N)C(=O)O

What was measured:
Format in all cases: cell-based
hGLP-1R [1] = biological target: T1, hGLP-1R (Homo sapiens, UniProt P43220); assay: Functional cAMP activity in the presence of 1% HSA; conditions: read-out: cAMP Rel EC50, hGLP-1R
human GcgR = human GcgR (Homo sapiens, UniProt P47871); assay: Functional cAMP activity in the presence of 1% HSA; conditions: read-out: cAMP Rel EC50, hGcgR
hGIPR [2] = biological target: T2, hGIPR (Homo sapiens, UniProt P48546); assay: Functional cAMP activation in the presence of 0.1% casein (no HSA); conditions: read-out: Relative cAMP EC50, hGIPR;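 note: intracellular cAMP rise after 30 min at 37 °C read by HTRF against a standard curve, scaled between buffer alone (0%) and top control ligand concentration (100%), four-parameter fit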
T2 sequence (P48546 22-466): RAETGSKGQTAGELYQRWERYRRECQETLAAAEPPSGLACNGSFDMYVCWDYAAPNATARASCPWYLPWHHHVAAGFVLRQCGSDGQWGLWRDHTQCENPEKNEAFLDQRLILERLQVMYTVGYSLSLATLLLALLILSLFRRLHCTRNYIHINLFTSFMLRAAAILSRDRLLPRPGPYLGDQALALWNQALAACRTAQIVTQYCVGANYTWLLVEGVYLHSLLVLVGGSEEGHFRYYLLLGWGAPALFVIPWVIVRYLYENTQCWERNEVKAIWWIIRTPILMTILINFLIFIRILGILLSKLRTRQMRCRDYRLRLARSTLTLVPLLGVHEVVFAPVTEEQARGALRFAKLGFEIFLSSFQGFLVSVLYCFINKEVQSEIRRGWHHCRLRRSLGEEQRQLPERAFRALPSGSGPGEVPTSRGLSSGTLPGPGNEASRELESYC
Experimental: After a 30-minute incubation at 37° C., the resulting increase in intracellular cAMP is quantitatively determined using the CisBio CAMP Dynamic 2 HTRF Assay Kit (62AM4PEJ). Briefly, cAMP levels within the cell are detected by adding the cAMP-d2 conjugate in cell lysis buffer followed by the antibody anti-cAMP-Eu^3+-Cryptate, also in cell lysis buffer.
Intracellular cAMP levels are determined by extrapolation using a standard curve. Dose response curves of compounds are plotted as the percentage of stimulation normalized to minimum (buffer only) and maximum (maximum concentration of each control ligand) values and analyzed using a four parameter non-linear regression fit with a variable slope (Genedata Screener 13). EC50 is the concentration of compound causing half-maximal simulation in a dose response curve. Each relative EC50 value for the Geometric mean calculation is determined from a curve fitting.

hGcgR = hGcgR (Homo sapiens, UniProt P47871); assay: as above; conditions: read-out: Relative cAMP EC50, hGcgR;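 note: intracellular cAMP rise after 30 min at 37 °C, read by HTRF against a cAMP standard curve, scaled from buffer only (0%) to maximal control ligand response (100%)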
hGLP-1R [3] = biological target: T1, hGLP-1R; assay: as above; conditions: read-out: Relative cAMP EC50, hGLP-1R
hGIPR [4] = biological target: T2, hGIPR; assay: Functional cAMP activity in the presence of 1% HSA; conditions: read-out: cAMP Rel EC50, hGIPR
[5] = in the presence of 0.1% casein (no HSA), geometric mean
[6] = HEK-293 clonal cell line, 1% HSA, geometric mean of relative EC50
[7] = in the presence of 0.1% casein (no HSA), geometric mean of relative EC50
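Throughout, for Relative cAMP EC50, hGLP-1R: intracellular cAMP rise after 30 min at 37 °C read by HTRF, normalized between buffer only (0%) and maximal control ligand (100%), four-parameter variable-slope fit.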

Chain of human GcgR (P47871 26-477): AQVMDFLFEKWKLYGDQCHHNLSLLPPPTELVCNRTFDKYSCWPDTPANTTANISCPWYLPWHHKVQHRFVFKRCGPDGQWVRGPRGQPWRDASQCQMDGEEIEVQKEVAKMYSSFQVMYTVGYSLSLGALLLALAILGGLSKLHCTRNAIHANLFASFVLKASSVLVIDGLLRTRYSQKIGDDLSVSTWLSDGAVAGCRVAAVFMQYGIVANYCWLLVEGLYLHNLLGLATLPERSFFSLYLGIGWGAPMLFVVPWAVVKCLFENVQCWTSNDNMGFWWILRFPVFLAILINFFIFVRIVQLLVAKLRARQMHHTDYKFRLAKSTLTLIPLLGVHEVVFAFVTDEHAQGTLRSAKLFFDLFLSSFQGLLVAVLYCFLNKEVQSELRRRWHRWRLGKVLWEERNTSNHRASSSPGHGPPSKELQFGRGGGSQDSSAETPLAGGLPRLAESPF
Chain of hGcgR (P47871 26-477): as above
T1 sequence (P43220 24-463): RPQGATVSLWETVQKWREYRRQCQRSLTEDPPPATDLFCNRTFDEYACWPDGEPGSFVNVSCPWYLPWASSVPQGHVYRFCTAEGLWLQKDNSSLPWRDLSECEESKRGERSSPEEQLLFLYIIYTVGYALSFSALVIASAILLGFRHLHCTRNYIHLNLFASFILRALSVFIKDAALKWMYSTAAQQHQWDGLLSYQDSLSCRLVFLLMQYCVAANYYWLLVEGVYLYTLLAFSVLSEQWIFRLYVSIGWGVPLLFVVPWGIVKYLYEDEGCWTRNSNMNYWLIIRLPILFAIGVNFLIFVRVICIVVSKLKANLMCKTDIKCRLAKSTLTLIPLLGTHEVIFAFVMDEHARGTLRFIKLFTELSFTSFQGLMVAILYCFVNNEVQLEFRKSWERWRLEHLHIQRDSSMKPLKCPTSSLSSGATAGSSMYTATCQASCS

For “Y[Aib]QGTFTSD[4Pal]SQ[αMeL]LD[Orn]K([dE-γGlu-C18 diacid])AQ[αMe4Pal]QFIE[αMeY]LIA[Aib]GPSSGEPPPSGSEE-NH2 [Example 1106]”, the EC50 (hGLP-1R [1]) was 119 nM, the EC50 (human GcgR) was 1030 nM and the EC50 (hGIPR [2]; [5]) was 0.0312 nM. For the same molecule, the EC50 (hGcgR; [5]) was 7.71 nM, the EC50 (hGLP-1R [3]; [5]) was 0.87 nM and the EC50 (hGIPR [4]) was 4.23 nM.
“H-Y[Aib]QGT[αMePhe(2-F)]TSD[4Pal][αMeS]I[αMeL]LD[Orn]K([γGlu-γGlu-C18 diacid])AQ[αMe4Pal]EFI[dE][αMeY]LIEGGPSSGAPPPSGSE-NH2 [Example 717]” was tested, and the EC50 (hGLP-1R [1]) was 21.4 nM, the EC50 (human GcgR) was 130 nM and the EC50 (hGIPR [2]) was 0.00721 nM. For the same molecule, the EC50 (hGcgR) was 1.14 nM, the EC50 (hGLP-1R [3]) was 0.283 nM and the EC50 (hGIPR [4]) was 0.561 nM.
Work on “Y[Aib]QGT[αMePhe(2-F)]TSD[4Pal][αMeS]I[αMeL]LD[Orn]K([AEEA-γGlu-C18 diacid])AA[Aib]EFI[dE][αMeY]LIEGGPSSGAPPPSGGGE-NH2 [Example 745]” yielded an EC50 (hGLP-1R [1]) of 29 nM, an EC50 (human GcgR) of 266 nM and an EC50 (hGIPR [2]) of 0.012 nM. The EC50 (hGcgR) was 1.86 nM, the EC50 (hGLP-1R [3]) was 0.212 nM and the EC50 (hGIPR [4]) was 1.36 nM.
In the case of “H-Y[Aib]QGT[αMePhe(2-F)]TSD[4Pal]SI[αMeL]LDKK([γGlu-γGlu-C18 diacid])AQ[Aib][Orn]FIEYLTEGGPSSGEPPPEGSEE-NH2 [Example 652]”, the EC50 (hGLP-1R [1]; [6]) is reported as 26.8 nM, the EC50 (human GcgR; [6]) is reported as 764 nM and the EC50 (hGIPR [2]; [7]) is reported as 0.0342 nM. The EC50 (hGcgR; [7]) was 15.3 nM, the EC50 (hGLP-1R [3]; [7]) was 0.426 nM and the EC50 (hGIPR [4]; [6]) was 1.92 nM.
Work on “H-Y[Aib]QGTFTSD[4Pal]SQ[αMeL]LDKK([AEEA-γGlu-C18 diacid])AQ[αMe4Pal]AFIEYLIE[Aib]GPSSGAPPPSGE-NH2 [Example 881]” yielded an EC50 (hGLP-1R [1]) of 321 nM, an EC50 (human GcgR) of 507 nM and an EC50 (hGIPR [2]; [5]) of 0.211 nM. The EC50 (hGcgR; [5]) was 4.09 nM, the EC50 (hGLP-1R [3]; [5]) was 2.87 nM and the EC50 (hGIPR [4]) was 30.1 nM.
For “H-Y[Aib]QGT[αMeF]TSD[4Pal][αMeS]I[αMeL]LD[Orn]K([AEEA-γGlu-C18 diacid])AQ[αMe4Pal]EFI[dE][αMeY]LIEGGPSSGEPPPSGSE-NH2 [Example 1167]”, the EC50 (hGLP-1R [1]) was 89.2 nM, the EC50 (human GcgR) was 274 nM and the EC50 (hGIPR [2]; [5]) was 0.011 nM. It also gave an EC50 (hGcgR; [5]) of 2.16 nM, an EC50 (hGLP-1R [3]; [5]) of 0.636 nM and an EC50 (hGIPR [4]) of 1.22 nM.
Molecule “H-Y[Aib]QGTFTSD[4Pal]S[Orn][αMeL]LD[Orn]K([γGlu-γGlu-C18 diacid])AQ[αMe4Pal]AFIE[αMeY]LIEGGPSSGAPPPSGS-NH2 [Example 1013]” has an EC50 (hGLP-1R [1]) of 137 nM, an EC50 (human GcgR) of 285 nM and an EC50 (hGIPR [2]; [5]) of 0.208 nM. It also gave an EC50 (hGcgR; [5]) of 2 nM, an EC50 (hGLP-1R [3]; [5]) of 0.449 nM and an EC50 (hGIPR [4]) of 22.6 nM.
Work on CC[C@H](C)[C@H](NC(=O)[C@H](CC(C)C)NC(=O)[C@H](Cc1ccc(O)cc1)NC(=O)[C@H](CCC(=O)O)NC(=O)[C@@H](NC(=O)[C@H](Cc1ccccc1)NC(=O)[C@H](C)NC(=O)C(C)(C)NC(=O)[C@H](CCC(N)=O)NC(=O)[C@H](C)NC(=O)[C@H](CCCCNC(=O)COCCOCCNC(=O)COCCOCCNC(=O)CC[C@H](NC(=O)CCCCCCCCCCCCCCCCCCC(=O)O)C(=O)O)NC(=O)[C@H](CCCCN)NC(=O)[C@H](CC(=O)O)NC(=O)[C@H](CC(C)C)NC(=O)[C@](C)(CC(C)C)NC(=O)[C@@H](NC(=O)[C@](C)(CO)NC(=O)[C@H](Cc1ccc(O)cc1)NC(=O)[C@H](CC(=O)O)NC(=O)[C@H](CO)NC(=O)[C@@H](NC(=O)[C@H](Cc1ccccc1)NC(=O)[C@@H](NC(=O)CNC(=O)[C@H](CCC(N)=O)NC(=O)C(C)(C)NC(=O)[C@@H](N)Cc1ccc(O)cc1)[C@@H](C)O)[C@@H](C)O)[C@@H](C)CC)[C@@H](C)CC)C(=O)N[C@@H](CCC(=O)O)C(=O)NCC(=O)NCC(=O)N1CCC[C@H]1C(=O)N[C@@H](CO)C(=O)N[C@@H](CO)C(=O)NCC(=O)N[C@@H](C)C(=O)N1CCC[C@H]1C(=O)N1CCC[C@H]1C(=O)N1CCC[C@H]1C(=O)N[C@@H](CO)C(N)=O [Example 382] (H-Y[Aib]QGTFTSDY[αMeS]I[αMeL]LDKK([AEEA-AEEA-γGlu-C20 diacid])AQ[Aib]AFIEYLIEGGPSSGAPPPS-NH2) yielded an EC50 (hGLP-1R [1]) of 61.5 nM, an EC50 (human GcgR) of 1050 nM and an EC50 (hGIPR [2]; [5]) of 0.0368 nM. For the same molecule, the EC50 (hGcgR; [5]) was 3.72 nM, the EC50 (hGLP-1R [3]; [5]) was 0.291 nM and the EC50 (hGIPR [4]) was 17.7 nM.
With “H-Y[Aib]QGT[αMePhe(2-F)]TSD[4Pal]SI[αMeL]LD[Orn]K([AEEA-γGlu-C18 diacid])AQ[αMe4Pal][Orn]FI[dE][αMeY]LIEGGPSSGEPPPEAE-NH2 [Example 676]” the EC50 (hGLP-1R [1]) was 24.4 nM, the EC50 (human GcgR) was 208 nM and the EC50 (hGIPR [2]) was 0.0106 nM. It also gave an EC50 (hGcgR) of 2.34 nM, an EC50 (hGLP-1R [3]) of 0.267 nM and an EC50 (hGIPR [4]) of 1.07 nM.
“H-Y[Aib]QGT[αMePhe(2-F)]TSD[4Pal][αMeS]I[αMeL]LD[Orn]K([γGlu-γGlu-C18 diacid])AQ[Aib][Orn]FI[dE][αMeY]LAEGGPSSGEPPPSGSEE-NH2 [Example 589]” was tested, and the EC50 (hGLP-1R [1]) was 44.4 nM, the EC50 (human GcgR) was 289 nM and the EC50 (hGIPR [2]) was 0.0672 nM. It also gave an EC50 (hGcgR) of 4.11 nM, an EC50 (hGLP-1R [3]) of 0.713 nM and an EC50 (hGIPR [4]) of 3.83 nM.
